Test results published in patent US20150265630A1, “6-Substituted Estradiol Derivatives for the Treatment of Alzheimer's Disease” (Endece LLC, priority 2014, published 2015).

Experiments:
Format in all cases: cell-based
[1] = test system: Lipoprotein Lipase mRNA (LPL); experiment: Expression profiling (Agilent whole human genome microarray), LPL mRNA in human tumor cell lines; details: for Gene expression value, Lipoprotein Lipase mRNA (LPL), treated vs untreated: 50 μM, 24 hours
Method: (§1) The study includes three human tumor cell lines: A549, Panc-1, and SK-OV-3. The lines are each grown in two flasks cultured to roughly 40% confluence. One of the flasks is treated by addition of compound to the culture media at a various concentrations, i.e. 10 μM, 20 μM 50 μM, or 100 μM. The other, mock treated, flask is treated only with the vehicle used to solubilize and deliver the drug. RNA extracted from the pairs of treated and untreated samples is subjected to microarray analysis on Agilent Whole Human Genome Microarrays (G4112F). Each analysis reports the difference in abundance of messenger RNAs for each of the 41,000 specific mRNA detectors on the array. This direct comparison of the treated versus untreated samples for each cell line provides extremely sensitive detection of changes in mRNA abundance resulting from the drug treatment. As each cell line comparison is self-normalized, the results can be compared across the samples with high confidence.
(§2) Three human tumor cell lines, A549, Panc-1, and SK-OV-3, are each grown in two flasks cultured to roughly 40% confluence. One of the flasks is treated by addition of compound to the culture media at concentrations of 10 μM, 50 μM and 100 μM. The other, mock treated, flask is treated only with the vehicle used to solubilize and deliver the drug. All flasks are cultured for a further 24 hours, and then the cells are scraped free and washed in ice-cold PBS, then collected by centrifugation. The harvested cells are immediately frozen, and stored at −80° C. or colder.
(§3) Total RNA is prepared from the frozen tissue samples using Trizol-based cell lysis followed by 65° C. hot phenol extraction and RNeasy chromatography purification. The purified RNA samples are analyzed spectrophotometrically. The concentration of RNA is determined by measuring the absorbance at 260 nm (A260). Given an absorbance of 1 unit at 260 nm corresponds to […] of RNA per ml when measured at pH 11.
(§4) All RNAs are labeled using 1 microgram of RNA as input to an Agilent Low Input Labeling reaction.
(§5) Test RNA is labeled with Cy5 (650 nm emitter) and reference RNA is labeled with Cy3 (550 nm emitter) nucleotides. Labeling, hybridizations and subsequent washings are carried out on Agilent H1Av2 human expression chips. The resulting hybridized chips are scanned on an Agilent microarray scanner, and intensity information for each detector spot is extracted from the scanned image using Agilent feature extraction software. […]
(§6) After the ratios have been calculated for the normalized data, the various control and duplicate samples are analyzed to build a model of how reproducible the results are, and how this reproducibility is varies depending on signal strength and noise. […]

[2] = test system: Apolipoprotein C2 (ApoC2); experiment: Expression profiling (Agilent whole human genome microarray), ApoC2 mRNA in human tumor cell lines; details: for Gene expression value, Apolipoprotein C2 (ApoC2), treated vs untreated: 50 μM, 24 hours
Method: as §1, §2, §3, §4, §5, §6

[3] = test system: Apolipoprotein C3 (ApoC3); experiment: Expression profiling (Agilent whole human genome microarray), ApoC3 mRNA in human tumor cell lines; details: for Gene expression value, Apolipoprotein C3 (ApoC3), treated vs untreated: 50 μM, 24 hours
Method: as §1, §2, §3, §4, §5, §6

[4] = human tumor cell lines SKOV-3, A549 and Panc-1, summary of Table 1

## COCCCCCC[C@@H]1C[C@@H]2[C@H](CC[C@]3(C)C(O)CC[C@@H]23)c2ccc(O)cc21 (stereo partly drawn) [Compound 21, (6R,8R,9S,13S,14S)-6-(6-methoxyhexyl)-13-methyl-7,8,9,11,12,13,14,15,16,17-decahydro-6H-cyclopenta[a]phenanthrene-3,17-diol]
[1]; A549 cells, p = 0.0018
  Gene expression value, Lipoprotein Lipase mRNA (LPL), treated vs untreated: 2.95 log2
[1]; Panc-1 cells
  Gene expression value, Lipoprotein Lipase mRNA (LPL), treated vs untreated: 3.90 log2
[1]; SKOV-3 cells, p = 0.008
  Gene expression value, Lipoprotein Lipase mRNA (LPL), treated vs untreated: 2.77 log2
[1]; [4]
  Regulation of the LPL gene (in words): up-regulate
[2]; A549 cells
  Gene expression value, Apolipoprotein C2 (ApoC2), treated vs untreated: 7.21 log2
[2]; Panc-1 cells
  Gene expression value, Apolipoprotein C2 (ApoC2), treated vs untreated: 6.91 log2
[2]; SKOV-3 cells
  Gene expression value, Apolipoprotein C2 (ApoC2), treated vs untreated: 3.89 log2
[2]; [4]
  Regulation of the ApoC2 gene (in words): up-regulate
[3]; A549 cells
  Gene expression value, Apolipoprotein C3 (ApoC3), treated vs untreated: 0 log2
[3]; Panc-1 cells
  Gene expression value, Apolipoprotein C3 (ApoC3), treated vs untreated: 0 log2
[3]; SKOV-3 cells
  Gene expression value, Apolipoprotein C3 (ApoC3), treated vs untreated: 0 log2
[3]; [4]
  Regulation of the ApoC3 gene (in words): but not the ApoC3 gene
